Measured values published in patent publication US9040035B2, “Treatment of pain using placental stem cells” (ANTHROGENESIS CORPORATION, priority 2011, dated 2015).

Experiments:
[1] = tested on: Sciatic nerve chronic constriction injury; test: Sciatic nerve chronic constriction injury (CCI) in rats, tactile allodynia test; type: in vivo, rat; conditions: 100 mg/ml, 0.25 ml IP; days 10, 16, 25 and 30
Excerpt: (§1) Seventy seven male Sprague Dawley rats, 3 months old, approximately 200-250 g at study initiation were included in the study. Minimum and maximum weights of the group were within a range of ±20% of group mean weight. Following several days of habituation the rats underwent baseline measurements for pain behavior (tactile-allodynia) and motor sensory assessment (rotarod test). All the rats underwent Sciatic nerve chronic constriction injury (CCI); pain development was verified on the 6th day following the operation and sensory motor behavior on the 7th. On the 8th day following the procedure the rats were assigned randomly to the various treatment groups (Table 5). Pain levels were assessed on the 6th, 10th, 16th, 25th and 30th days following the procedure. Motor sensory coordination was assessed on the 11th, 21st, 26th and 34th days. […]
Pain level was evaluated using a Tactile allodynia test. In this test, the withdrawal response to calibrated Von Frey fibers is measured. […] Each fiber was applied to the paw five times and a percentage score of responses was calculated (see Flatters et al., Pain, 2004, 109:150-161). […]
(§2) Data were tabulated and analyzed using StatView software version 5.0 (SAS Institute Inc., San Francisco, Calif., USA). […] Behavioral statistics were calculated only for rats with data at all time points. […]

[2] = tested on: motor sensory coordination; test: Sciatic nerve chronic constriction injury (CCI) in rats, Rotarod test; type: in vivo, rat; conditions: 100 mg/ml, 0.25 ml IP
Excerpt: as §1, with “days. On the 35th day the rats were euthanized, the sciatic nerves (both sides) were collected and embedded in paraffin.” for “days.”
Motor sensory coordination was evaluated with the Rotarod Test. […] The rodent's ability to remain on the rotating rod is recorded (time in seconds). […]
as §2

With `NCC1(CC(=O)O)CCCCC1` [gabapentin] the “pain (responses to 26 g stimuli) compared to day 6” value [1] was “significantly reduced the pain” and the “time spent on the rotarod (motor sensory coordination)” value [2] was “significant reduction in the time spent on the rotarod”.
